In article PMC11650735, “Challenging Reported Frizzled-Targeting Compounds in Selective Assays Reveals Lack of Functional Inhibition and Claimed Profiles” (ACS Pharmacology & Translational Science, 2024):

System: individually reexpressed FZDs (1,2,4,5,7,8, and 10)
Assay: TopFlash in ΔFZD1–10 HEK293T, panel of individually reexpressed FZDs, Wnt3a-stimulated (collective statements)
Conditions: compared with pcDNA+CHIR99021

With `O=C(/C=C/c1ccc2c(c1)OCO2)Nc1ccc(-n2cnc3ccccc32)cc1` [SRI35959] the “FZDs whose reintroduction reduces the compound's potency” value was “FZD1,4, and 7”.

In the case of `NC(=O)N1c2ccccc2C=Cc2ccccc21` [carbamazepine], the “FZDs whose reintroduction reduces the compound's potency” value is reported as “FZD5 and FZD8”.
